Source: patent US4013449A, “Method of controlling weed growth in a paddy field” (priority 1974, dated 1977)
Entries after “also recorded” stand apart in the source; their conditions may differ.

How the values were obtained:
[1] = Experiment 3: decomposition of DCPA in soil; type: physicochemical; conditions: Alluvium loam soil, DCPA 100 g/are; for inhibition of the decomposition of DCPA in soil: NAC 3.3 g/are
Protocol: The method of this invention is treatment in flooded water. Accordingly, transfer of the active ingredients into the soil of the paddy field is unavoidable. The decompositions of the active ingredients in the paddy soil were measured.
Soil: Alluvium loam soil
The active ingredients were uniformly mixed in a 5 mm
Analysis: The concentrations of DCPA were
measured by gas chromatography in […]

barnyard grass [2] = assay: Example 1: usual transplanting culture, paddy field, poured into flooded water, herbicidal effect on barnyard grass; type: in vivo, Echinochloa crusgalli; conditions: for Herbicidal effect, barnyard grass: 3 weeks; for herbicidal effect to barnyard grass and broadleaf weeds: poured into flooded water; for Herbicidal effect, barnyard grass: key: 5: complete control; 4: excellent effect; 3: large effect; 2: fair effect; 1: small effect; 0: no effect
Text: (§1) DCPA and β-NAC were separately crushed into fine powders by a jetmizer. The crushed DCPA and β-NAC were mixed in ratios of 80 : 1; 40 : 1; 20 : 1 and 10 : 1 together with a dispersing agent (Sorpol 5039 manufactured by Toho Chemical Co. and Rapizol BB-74 manufactured by Nippon Fat & Oil Co.) to form a wettable powder. The compositions were applied under the following conditions in a paddy field of Ishigakijima, Okinawa-Ken, Japan.
(§2) 1. Plot size: Two replications, each 1 m^2 per division
(§3) 2. Culturing method: Usual transplanting
(§4) 3. Rice variety: Taichu 65
(§5) 5 - 6 leaf stage of rice plants at the transplanting;
(§6) a. Treating time Mar. 16, 1974 (17 days after transplanting)
(§7) 2 - 2.5 leaf stage of barnyard grass
(§8) Each composition was diluted with 50 cc of water and the solution was poured in the rows by using a watering pot
(§9) Barnyard grass (Echinochloa crusgalli);
(§10) After 3 weeks from the treatment, the herbicidal effect and the phytotoxicity were observed.

broadleaf weeds [3] = assay: Example 1: usual transplanting culture, paddy field, poured into flooded water, herbicidal effect on broadleaf weeds; type: in vivo; conditions: 3 weeks; note: key: 5: complete control; 4: excellent effect; 3: large effect; 2: fair effect; 1: small effect; 0: no effect
Text: as §1, §2, §3, §4, §5, §6, §7, §8
Monochoria vaginalis (Burm fil) Presl;
Dopatrium junceum (Roxb) Hamilt;
Rotala indica (Willd) koehne;
Eleocharis acicularis Roem et Schult;
as §10

barnyard grass [4] = assay: Example 2: mechanical transplanting using young seedlings, poured into flooded water, herbicidal effect on barnyard grass; type: in vivo, Echinochloa crusgalli; conditions: for Herbicidal Effect, BG: 20 days; for Herbicidal Effect, BG: key: 5: complete control; 4: excellent effect; 3: large effect; 2: fair effect; 1: small effect; 0: no effect
Protocol: (§11) The tests were conducted by using the compositions of Example 1 in the paddy field of Ishigakijima, Okinawa-Ken, Japan.
(§12) 1. Plot size: Two replications each 1 m^2 per division.
(§13) 2. Culturing method: Mechanical transplanting using young seedlings
(§14) 3. Rice variety: Nihonbare
(§15) 4. Transplanting: Apr. 8, 1974
(§16) 2.3 - 3 leaf stage of rice at the transplanting;
(§17) 5. Depth of water: 3 - 5 cm
(§18) A. first treatment: Apr. 19, 1974
(§19) (16 days after transplanting)
as §7
(§20) B. second treatment: Apr. 23, 1974
(§21) (20 days after transplanting)
(§22) 3 - 3.5 leaf stage of barnyard grass.
(§23) Each composition was diluted with 50 cc of water and the solution was poured in the rows by using a watering pot.
as §9
(§24) After 20 days from the treatment (the first treatment and the second treatment), the herbicidal effects and the condition of the rice were observed.

rice plant [5] = assay: Example 1: usual transplanting culture, paddy field, phytotoxicity to rice plant; type: in vivo, Taichu 65; parameters: key: X: killed; ++++: serious damage; +++: high damage; ++: middle damage; +: low damage; ±: quite low damage; -: no damage; conditions: 3 weeks
Text: as §1, §2, §3, §4, §5, §6, §7, §8, §10

rice plant [6] = assay: Reference Experiment 2: foliage treatment, phytotoxicity of rice plant; type: in vivo; conditions: DCPA 1000 ppm alone
Text: In unglazed pots having diameters of 9 cm, diluvium clay loam was filled and rice seeds and barnyard grass seeds were sowed and grown. […] The phytotoxicity of rice and herbicidal effect on barnyard grass were observed 20 days from the treatment.

broadleaf weeds [7] = assay: Example 2: mechanical transplanting using young seedlings, poured into flooded water, herbicidal effect on broadleaf weeds; type: in vivo; conditions: 20 days; note: key: 5: complete control; 4: excellent effect; 3: large effect; 2: fair effect; 1: small effect; 0: no effect
Protocol: as §11, §12, §13, §14, §15, §16, §17, §18, §19, §7, §20, §21, §22, §23
Monochoria vaginalis (Burm fil) Presel;
Rotala indica (Willd) Koehne;
Scirpus juncoides Roxb; and
as §24

larva of mosquito = assay: LD50 to larva of mosquito (Table 1); conditions: read-out: LD50 to larva of mosquito
house fly = assay: LD50 to house fly (Table 1); conditions: addition of piperinyl butoxide
Insecticidal effect = conditions: in vivo
[8] = A: 2 - 2.5 leaf stage, DCPA 60 g/are, β-NAC none
[9] = B: 3 - 3.5 leaf stage, DCPA 60 g/are, β-NAC none
[10] = A: 2 - 2.5 leaf stage, DCPA none, β-NAC 4.0 g/are
[11] = B: 3 - 3.5 leaf stage, DCPA none, β-NAC 4.0 g/are

SMILES: CCC(=O)Nc1ccc(Cl)c(Cl)c1 [DCPA, 3,4-dichloropropionanilide, reference compound]
- minimum residues of DCPA in soil ([1]; α-NAC or β-NAC 3.3 g/are where combined, gas chromatography): 4 days
- Herbicidal effect, barnyard grass (barnyard grass [2]; DCPA 60 g/are, β-NAC none): 0
- herbicidal effect to barnyard grass and broadleaf weeds (barnyard grass [2]; DCPA 60 g/are): no herbicidal effect
- Herbicidal effect, broadleaf weeds (broadleaf weeds [3]; DCPA 60 g/are, β-NAC none): 0
- Herbicidal Effect, BG (barnyard grass [4]; [8]): 0
- Herbicidal Effect, BG (barnyard grass [4]; [9]): 0
- herbicidal effect (barnyard grass [4]; DCPA 60 g/are, 2 - 2.5 and 3 - 3.5 leaf stage of barnyard grass): no herbicidal effect was found
- Phytotoxicity to rice plant (rice plant [5]; DCPA 60 g/are, β-NAC none): -
- Phytotoxicity to rice plants (rice plant [6]): not found
- Herbicidal Effect, BLW (broadleaf weeds [7]; [8]): 0
- Herbicidal Effect, BLW (broadleaf weeds [7]; [9]): 0

SMILES: CNC(=O)Oc1cccc2ccccc12 [α-NAC, α-naphthyl-N-methyl carbamate]
- inhibition of the decomposition of DCPA in soil [1]: inhibit the decomposition of DCPA

SMILES: CNC(=O)Oc1ccc2ccccc2c1 [β-NAC, β-naphthyl-N-methyl carbamate]
- inhibition of the decomposition of DCPA in soil [1]: higher effect for inhibiting the decomposition of DCPA
- Herbicidal effect, barnyard grass (barnyard grass [2]; DCPA none, β-NAC 4.0 g/are): 0
- herbicidal effect to barnyard grass and broadleaf weeds (barnyard grass [2]; β-NAC 4 g/are): no herbicidal effect
- Herbicidal effect, broadleaf weeds (broadleaf weeds [3]; DCPA none, β-NAC 4.0 g/are): 0
- LC50 (larva of mosquito): > 10 µg/mL
- LD50 to house fly (house fly): 12.5 µg/g
- Herbicidal Effect, BG (barnyard grass [4]; [10]): 0
- Herbicidal Effect, BG (barnyard grass [4]; [11]): 0
- insecticidal effect (Insecticidal effect): low insecticidal effect; also recorded: no insecticidal effect
- Phytotoxicity to rice plant (rice plant [5]; DCPA none, β-NAC 4.0 g/are): -
- Herbicidal Effect, BLW (broadleaf weeds [7]; [10]): 0
- Herbicidal Effect, BLW (broadleaf weeds [7]; [11]): 0
